Biological target: T1, human mAChR M4 (Homo sapiens, UniProt P08173)
T1 construct: expressed in transfected cells; host or cells: CHO-K1 (American Type Culture Collection), stably expressing hM4 and Gqi5
T1 sequence (P08173 1-479): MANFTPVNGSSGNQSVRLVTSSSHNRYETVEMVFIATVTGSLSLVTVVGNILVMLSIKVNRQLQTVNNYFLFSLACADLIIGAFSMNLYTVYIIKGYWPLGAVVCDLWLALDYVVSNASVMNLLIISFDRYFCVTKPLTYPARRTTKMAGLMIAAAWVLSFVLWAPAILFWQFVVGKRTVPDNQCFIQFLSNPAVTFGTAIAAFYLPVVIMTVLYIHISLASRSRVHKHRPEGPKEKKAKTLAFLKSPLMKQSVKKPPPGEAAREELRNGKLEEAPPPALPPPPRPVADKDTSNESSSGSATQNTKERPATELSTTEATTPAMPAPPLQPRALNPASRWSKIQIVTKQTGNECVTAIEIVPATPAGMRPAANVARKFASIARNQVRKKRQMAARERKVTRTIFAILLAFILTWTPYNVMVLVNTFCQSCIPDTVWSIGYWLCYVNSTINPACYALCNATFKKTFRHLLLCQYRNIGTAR
Assay: mAChR M4 cell-based functional assay: calcium mobilization (Fluo-4, FDSS), potentiation of EC20 acetylcholine response in hM4-Gqi5 CHO-K1 cells
Details: human M4; for Emax at 30 µM: CHO-K1, % ACh maximum at 30 μM; for EC50: potentiation of EC20 acetylcholine response, calcium mobilization
Method in brief: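 CHO-K1 cells stably co-expressing human M4 and chimeric Gqi5, loaded with Fluo-4 AM (50 min, 37 °C). Compounds in 11-point 1:3 series added first; EC20 acetylcholine added at 144 s and again at 230 s. Calcium read on FDSS at 1 Hz; EC50 and Emax from four-parameter logistic fit of potentiated EC20 response.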

SMILES | Emax at 30 µM [%] | EC50 [nM]
Cc1cc2nccc(=O)n2nc1N1CCc2ncc(Nc3cncnc3C)cc2C1 [Compound 2-139, 8-methyl-7-(3-((4-methylpyrimidin-5-yl)amino)-7,8-dihydro-1,6-naphthyridin-6(5H)-yl)-4H-pyrimido[1,2-b]pyridazin-4-one] | 97 | 1820
COc1ccnc(Nc2cnc3c(c2)CN(c2nn4c(=O)ccnc4cc2C)CC3)n1 [Compound 2-140, 7-(3-((4-methoxypyrimidin-2-yl)amino)-7,8-dihydro-1,6-naphthyridin-6(5H)-yl)-8-methyl-4H-pyrimido[1,2-b]pyridazin-4-one] | 56 | 985
COc1cc(Nc2cnc3c(c2)CN(c2nn4c(=O)ccnc4cc2C)CC3)ccn1 [Compound 2-141, 7-(3-((2-methoxypyridin-4-yl)amino)-7,8-dihydro-1,6-naphthyridin-6(5H)-yl)-8-methyl-4H-pyrimido[1,2-b]pyridazin-4-one] | 100 | 21
Cc1cc2nccc(=O)n2nc1N1CCc2ncc(Nc3cncc(Cl)c3)cc2C1 [Compound 2-142, 7-(3-((5-chloropyridin-3-yl)amino)-7,8-dihydro-1,6-naphthyridin-6(5H)-yl)-8-methyl-4H-pyrimido[1,2-b]pyridazin-4-one] | 66 | 182
Cc1cc2nccc(=O)n2nc1N1CCc2ncc(Nc3ccc(F)nc3C)cc2C1 [Compound 2-143, 7-(3-((6-fluoro-2-methylpyridin-3-yl)amino)-7,8-dihydro-1,6-naphthyridin-6(5H)-yl)-8-methyl-4H-pyrimido[1,2-b]pyridazin-4-one] | 82 | 469
Cc1c(N2CCc3ncc(N4CCOC4=O)cc3C2)nn2c(=O)ccnc2c1C [Compound 2-144, 3-(6-(8,9-dimethyl-4-oxo-4H-pyrimido[1,2-b]pyridazin-7-yl)-5,6,7,8-tetrahydro-1,6-naphthyridin-3-yl)oxazolidin-2-one] | 98 | 1580
Cc1c(N2CCc3ncc(N4CC(C)(C)CC4=O)cc3C2)nn2c(=O)ccnc2c1C [Compound 2-145, 7-(3-(4,4-dimethyl-2-oxopyrrolidin-1-yl)-7,8-dihydro-1,6-naphthyridin-6(5H)-yl)-8,9-dimethyl-4H-pyrimido[1,2-b]pyridazin-4-one] | 68 | 1750
Cc1c(N2CCc3ncc(N4CCCS4(=O)=O)cc3C2)nn2c(=O)ccnc2c1C [Compound 2-146, 7-(3-(1,1-dioxidoisothiazolidin-2-yl)-7,8-dihydro-1,6-naphthyridin-6(5H)-yl)-8,9-dimethyl-4H-pyrimido[1,2-b]pyridazin-4-one] | 78 | 1480
Cc1c(N2CCc3ncc(N=S4(=O)CCCC4)cc3C2)nn2c(=O)ccnc2c1C [Compound 2-147, 8,9-dimethyl-7-(3-((1-oxidotetrahydro-126-thiophen-1-ylidene)amino)-7,8-dihydro-1,6-naphthyridin-6(5H)-yl)-4H-pyrimido[1,2-b]pyridazin-4-one] | 100 | 1240
Cc1c(N2CCc3ncc(N4CCC(C)(C)C4=O)cc3C2)nn2c(=O)ccnc2c1C [Compound 2-148, 7-(3-(3,3-dimethyl-2-oxopyrrolidin-1-yl)-7,8-dihydro-1,6-naphthyridin-6(5H)-yl)-8,9-dimethyl-4H-pyrimido[1,2-b]pyridazin-4-one] | 86 | 1030
Cc1c(N2CCc3ncc(N4C(=O)Cc5ncccc54)cc3C2)nn2c(=O)ccnc2c1C [Compound 2-149, 8,9-dimethyl-7-(3-(2-oxo-2,3-dihydro-1H-pyrrolo[3,2-b]pyridin-1-yl)-7,8-dihydro-1,6-naphthyridin-6(5H)-yl)-4H-pyrimido[1,2-b]pyridazin-4-one] | 50 | 1050
Cc1c(N2CCc3ncc(N4CC(C)(C)OC4=O)cc3C2)nn2c(=O)ccnc2c1C [Compound 2-150, 3-(6-(8,9-dimethyl-4-oxo-4H-pyrimido[1,2-b]pyridazin-7-yl)-5,6,7,8-tetrahydro-1,6-naphthyridin-3-yl)-5,5-dimethyloxazolidin-2-one] | 63 | 4380
Cc1cc2nccc(=O)n2nc1N1CCc2ncc(N3CC4(COC4)C3)cc2C1 [Compound 2-151, 7-(3-(2-oxa-6-azaspiro[3.3]heptan-6-yl)-7,8-dihydro-1,6-naphthyridin-6(5H)-yl)-8-methyl-4H-pyrimido[1,2-b]pyridazin-4-one] | 56 | –
Cc1cc2nccc(=O)n2nc1N1CCc2ncc(Nc3cc(C(F)(F)F)ncc3F)cc2C1 [Compound 2-152, 7-(3-((5-fluoro-2-(trifluoromethyl)pyridin-4-yl)amino)-7,8-dihydro-1,6-naphthyridin-6(5H)-yl)-8-methyl-4H-pyrimido[1,2-b]pyridazin-4-one] | 88 | 1320
Cc1cc2nccc(=O)n2nc1N1CCc2ncc(Nc3ccnc(C)c3F)cc2C1 [Compound 2-153, 7-(3-((3-fluoro-2-methylpyridin-4-yl)amino)-7,8-dihydro-1,6-naphthyridin-6(5H)-yl)-8-methyl-4H-pyrimido[1,2-b]pyridazin-4-one] | 83 | 27
Cc1cc2nccc(=O)n2nc1N1CCc2ncc(Nc3c(F)cncc3F)cc2C1 [Compound 2-154, 7-(3-((3,5-difluoropyridin-4-yl)amino)-7,8-dihydro-1,6-naphthyridin-6(5H)-yl)-8-methyl-4H-pyrimido[1,2-b]pyridazin-4-one] | 90 | 41
Cc1cc(Nc2cnc3c(c2)CN(c2nn4c(=O)ccnc4cc2C)CC3)c(F)cn1 [Compound 2-155, 7-(3-((5-fluoro-2-methylpyridin-4-yl)amino)-7,8-dihydro-1,6-naphthyridin-6(5H)-yl)-8-methyl-4H-pyrimido[1,2-b]pyridazin-4-one] | 94 | 21
Cc1cc2nc(C)c(F)c(=O)n2nc1N1CCc2ncc(Nc3ccncc3F)cc2C1 [Compound 2-156, 3-fluoro-7-(3-((3-fluoropyridin-4-yl)amino)-7,8-dihydro-1,6-naphthyridin-6(5H)-yl)-2,8-dimethyl-4H-pyrimido[1,2-b]pyridazin-4-one] | 97 | 64
Cc1cc2ncc(Cl)c(=O)n2nc1N1CCc2ncc(Nc3ccncc3F)cc2C1 [Compound 2-157, 3-chloro-7-(3-((3-fluoropyridin-4-yl)amino)-7,8-dihydro-1,6-naphthyridin-6(5H)-yl)-8-methyl-4H-pyrimido[1,2-b]pyridazin-4-one] | 90 | 3
Cc1cc2nc(C)c(C)c(=O)n2nc1N1CCc2ncc(Nc3ccncc3F)cc2C1 [Compound 2-158, 7-(3-((3-fluoropyridin-4-yl)amino)-7,8-dihydro-1,6-naphthyridin-6(5H)-yl)-2,3,8-trimethyl-4H-pyrimido[1,2-b]pyridazin-4-one] | 91 | 1
Cc1cc2nc(C(F)F)cc(=O)n2nc1N1CCc2ncc(Nc3ccncc3F)cc2C1 [Compound 2-159, 2-(difluoromethyl)-7-(3-((3-fluoropyridin-4-yl)amino)-7,8-dihydro-1,6-naphthyridin-6(5H)-yl)-8-methyl-4H-pyrimido[1,2-b]pyridazin-4-one] | 94 | 1

— US20250101041A1, “POSITIVE ALLOSTERIC MODULATORS OF THE MUSCARINIC ACETYLCHOLINE RECEPTOR M4” (Vanderbilt University, priority 2022, published 2025)
